“And” between values parts separate entries of the source, which are not always exact repeats. Equal entries are not always repeated.
Legend:
[1] = tested on: atrial flutter circuit; test: Canine Y-shaped lesion model of sustained stable atrial flutter; reset-response measurement of cycle length, refractory period and excitable gap during neurotransmitter infusion with or without sotalol; format: in vivo, dog
Method: In a group of 13 open chest anaesthetised dogs, atrial flutter model was produced during baseline conditions around the tricuspid valve using a Y-shaped lesion in the intercaval area extending to the right atrial appendage. Atrial flutter was induced at the shortest effective refractory period site using fast pacing stimulation (S1S1) of 100-150 ms. This manoeuvre was repeated as much as necessary with more damage in the Y-shaped lesion model to achieve a sustained stable atrial flutter (>10 min) during the baseline conditions. In order to determine the excitable gap duration and composition during this sustained and stable atrial flutter, a diastole was scanned with a single premature extrastimulus, S1S2 (S1S2=]refractory period, flutter cycle length[) to define the atrial flutter circuit composition and duration (flutter cycle length=refractory period+excitable gap). Atrial flutter cycle length, atrial effective refractory period and duration of the excitable gap were then determined. Measures were repeated during a constant infusion into the right coronary artery of norepinephrine (15 μg/min) and acetylcholine (2 μg/min) allowing 15 min for recovery from norepinephrine effects. The effects of norepinephrine and acetylcholine at a constant plasma level of d-sotalol or d,l-sotalol (0.8 mg/kg+0.4 mg/kg/hr) were also studied in 2 different groups of chloralose anaesthetised dogs on the same electrophysiological parameters described above.
Atrial Flutter protocol: All experiments described were in accordance with institutional guidelines for animal experimentation. Fourteen mongrel dogs of either sex, weight 29-45 kg, were studied in the post-absorptive state. General anaesthesia was induced with sodium thiopental (25 mg/kg iv.) and maintained with chloralose (80 mg/kg iv. bolus supplemented by 20 mg/kg/hr maximum as needed). The dogs were intubated and ventilated (Harvard pump) with room air (10 breaths/min, tidal volume to achieve a maximum inspiratory pressure of 20 cm water) to maintain arterial pH 7.35-7.45 and PaO2>80 mm Hg. Arterial and venous cannulae were inserted in the left femoral artery and vein by direct cut down for blood pressure monitoring and drug administration, respectively. An additional venous cannulae was inserted in the right femoral vein or in the right internal jugular vein for blood sampling. Muscular relaxation was then induced with gallamine triethiodide (Flaxedil 100) 3 mg/kg intravenously. A right thoracotomy was performed via the fourth or fifth intercostal space and the pericardium was incised to provide access to the vena cava and the right atrium. […] A second line, extending from the first two-thirds of the way toward the tip of the right atrial appendage and parallel to 1-2 cm above the atrioventricular groove, was similarly incised and sewn over. Five close (2-4 mm) bipolar epicardial silver electrodes (insulated except at the tip) for stimulating and/or recording were sewn around the base of the right atrium within 1 cm of the tricuspid annulus. Three were positioned on the anterior surface and two on the posterior surface (Derakhchan K, et al., 1994). An arterial cannula was inserted in the right coronary artery for neurotransmitter infusion.
Measurement of electrophysiologic parameters: A single lead (II) surface electrocardiogram, atrial electrograms from each of the 5 bipolar electrodes, and the femoral arterial pressure were monitored and recorded using a Nihon Kohden polygraph (Model RM6008). Data were also stored on a Hewlett-Packard tape recorder. Atrial flutter was induced by burst stimulation (20-30 beats at basic cycle length <100 ms). During stable flutter (cycle length variation <10 ms), a premature stimulus was introduced at the site located on this re-entry circuit after every 20th spontaneous beat (T) in 2 ms decrements beginning at coupling intervals equal to the cycle length of this atrial tachycardia. […]

[2] = tested on: atrial flutter; conditions: intravenous atropine and propranolol together; supine or upright position; cited from earlier work
[3] = tested on: common human atrial flutter; conditions: cited from earlier work
[4] = tested on: atrial fibrillation; test: Canine atrial fibrillation model with vagal and stellar ganglion denervation/stimulation (ERP duration and dispersion, conduction velocity, wavelength, AF duration); format: in vivo, dog; conditions: vagal stimulation in the presence of class III drug therapy
Text: In a group of 14 anaesthetised open chest dogs, atrial fibrillation was induced by fast pacing and up to 10 attempts of arrhythmia initiations during baseline condition, vagal denervation, right and left vagal stimulation #1 (1 Hz, 0.1 ms), right and left stellar ganglions denervation, right and left vagal stimulation #2 (1 Hz, 0.1 ms), right and left stellar ganglions stimulation (10 Hz, 2 ms), and right and left vagal stimulation (1 Hz, 0.1 ms) associated with right and left stellar ganglions stimulation (10 Hz, 2 ms). Under the same conditions described above, the effective refractory period duration and dispersion (at S1S1=200 ms), the conduction velocity and the wavelength are determined. Atrial fibrillation occurrence was evaluated by the mean duration of 10 atrial fibrillation episodes at baseline (for a group of animals when none of the 10 atrial fibrillation episodes at baseline were lasting more than 3 minutes) and following each of the conditions described above. […]
Activation Mapping: Five thin plastic sheets containing 112 bipolar electrodes with 1 mm interpolar and 6 mm interelectrode distances were sewn into position on atrial epicardial surface. […] Each electrogram was analyzed with computer-determined peak-amplitude criteria and was reviewed manually. […] Isochrone maps and activation times for each activation were recorded by the use of IBM ink jet printer. […]

[5] = d,l-sotalol group, 7 dogs, NE 15 μg/min, ACh 2 μg/min into right coronary artery, d,l-sotalol 0.8 mg/kg+0.4 mg/kg/hr
[6] = d-sotalol group, 6 dogs, NE 15 μg/min, ACh 2 μg/min into right coronary artery, d-sotalol 0.8 mg/kg+0.4 mg/kg/hr

Structure (SMILES)	Atrial Effective Refractory Period (AERP), mean [1, 5]	Atrial Flutter Cycle Length (AF1CL), mean [1, 5]	Atrial Flutter Cycle Length (AF1CL), mean [1, 6]	effect on atrial flutter cycle length [2]	further results
CC(=O)OCC[N+](C)(C)C [ACh, acetylcholine]	64 ± 4 ms and 63.6000 ms and 63.6 ms	119 ± 17 ms and 119.0000 ms and 119.0 ms	123 ± 15 ms and 122.6667 ms and 122.7 ms		Effective Refractory Period duration (ERPdur), mean [1, 6]: 65 ± 5 ms and 64.8000 ms and 64.8 ms; Excitable Gap duration (EGdur), mean [1, 6]: 48 ± 16 ms and 47.6000 ms and 47.6 ms
CN1[C@@H]2CC[C@H]1C[C@@H](OC(=O)C(CO)c1ccccc1)C2 (stereo partly shown) [atropine]				did not change	
NC[C@H](O)c1ccc(O)c(O)c1 [NE, norepinephrine]	93 ± 7 ms and 93.0000 ms and 93.0 ms	132 ± 8 ms and 131.7500 ms and 131.8 ms	133 ± 12 ms and 133.0000 ms and 133.0 ms		reversal of d-sotalol effects on atrial flutter cycle length and effective refractory period duration ([1]; in the presence of d-sotalol): significantly reversed; effect on effective refractory period duration ([1]; infusion alone, d-sotalol group, 6 animals): significantly shortened; occurrence of the initiation of atrial flutter ([1]; neurotransmitter infusion, acetylcholine>>norepinephrine): significantly increased
CC(C)NCC(O)COc1cccc2ccccc12 (stereo not shown) [propranolol]				did not change	
CC[N+](C)(C)c1cccc(O)c1 [edrophonium]					effect on monophasic atrial action potential duration or atrial flutter cycle length [3]: no significant effect
CC(C)NCC(O)c1ccc(NS(C)(=O)=O)cc1 (racemic) [d,1-S, d,l-Sotalol]		143.0 ms			antiarrhythmic therapeutic effects under vagal stimulation [4]: significantly and markedly reversed

Reference: USRE42961E1, “Use of autonomic nervous system neurotransmitters inhibition and atrial parasympathetic fibers ablation for the treatment of atrial arrhythmias and to preserve drug effects” (St. Jude Medical, Atrial Fibrillation Division, Inc., priority 2000, dated 2011)
